The record followed here is patent publication US12290564B2, “Methods and apparatuses for treating tumors” (RenovoRx, Inc., priority 2017, dated 2025).

The structures appear in SMILES notation.

The test system of the assay is locally advanced pancreatic cancer. The assay is described as follows: Post-market registry study: intra-arterial (TAMP) delivery of gemcitabine with the RenovoCath RC120 catheter. Format: in vivo, human. As to the method: A post-market registry study was conducted to assess patient survival and clinical outcomes using the RenovoCath™ RC120 catheter (RenovoRx, Los Altos, Calif.) in a clinical, prospective observational setting when used to deliver a chemotherapeutic to the pancreas as described in Table 1. [table] […] An interventional radiologist used the RenovoCath™ RC 120 catheter to optimize drug delivery to the tumor(s). At the conclusion of the case, the femoral artery arteriotomy was sealed and patient monitored as per standard institutional protocol. All patients enrolled during the two-year registry enrollment period were followed periodically for survival outcome. Patients were contacted by telephone at the following intervals after the final intra-arterial treatment: 6 months±30 days, 1 year±30 days and 2 years±30 days. Patients were assessed for serious adverse events with specific attention to events related to local delivery of chemotherapeutic agents to the pancreas and device performance. FIG. 10 is a graph 1000 illustrating the effect of the TAMP technique on patient survival after radiation therapy compared with the effect of the TAMP technique with no radiation therapy. Fifteen patients with locally advanced pancreatic cancer were treated with gemcitabine in a dose-escalated protocol administered in four cycles using the TAMP technique. […]

For the compound `Nc1ccn([C@@H]2O[C@H](CO)[C@@H](O)C2(F)F)c(=O)n1` [gemcitabine], for the setting “gemcitabine by TAMP (eight treatments, or more than two treatments) compared with systemic infusion of gemcitabine (Chauffert et al. 2008), FIG. 9”, the “survival rates (survival percentage) of patients” value is “greater than the survival rates of the patients given systemic infusion of the same drug”. Further, the patient survival entry (gemcitabine by TAMP, dose-escalated, four cycles, patients with prior radiation vs no prior treatment or only prior systemic chemotherapy, FIG. 10) was “significant improvement in survival”.
